Assays:
Assay in all cases: relative viability (nuclei count vs DMSO), 5 days (fraction); higher = more cells survive
NCI-H358 = test system: NCI-H358
In short: (§1)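 Lung cancer cell lines, seeded in 1536-well plates, were treated the following day by pin tool with a single drug or with five library-drug doses (not always all listed) in √10 steps on top of a fixed anchor-drug dose. Cells were fixed and nuclei stained in one step after 5 days, and nuclei were counted. Relative viability is the nuclei count for treated wells divided by that for vehicle wells, reported as medians of duplicate plates.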

NCI-H1734 = test system: NCI-H1734
In short: as §1

EKVX = test system: EKVX
In short: as §1

NCI-H3122 = test system: NCI-H3122
In short: as §1

NCI-H1395 = test system: NCI-H1395
In short: as §1

SK-MES-1 = test system: SK-MES-1
In short: as §1

COR-L23 = test system: COR-L23
In short: as §1

EPLC-272H = test system: EPLC-272H
In short: as §1

NCI-H661 = test system: NCI-H661
In short: as §1

NCI-H1915 = test system: NCI-H1915
In short: as §1

NCI-H650 = test system: NCI-H650
In short: as §1

HCC-366 = test system: HCC-366
In short: as §1

O=c1[nH]c2ccccc2n1C1CCN(CCCC(c2ccc(F)cc2)c2ccc(F)cc2)CC1 [Pimozide] + O=C(c1cc(Cc2n[nH]c(=O)c3ccccc23)ccc1F)N1CCN(C(=O)C2CC2)CC1 [Olaparib] (partner 8 µM)
relative viability (NCI-H358; first compound 0.8 µM): 0.561 | relative viability (NCI-H358; first compound 2.53 µM): 0.508 | relative viability (NCI-H358; first compound 8 µM): 0.595 | relative viability (NCI-H1734; first compound 0.08 µM): 0.645 | relative viability (NCI-H1734; first compound 0.253 µM): 0.563 | relative viability (NCI-H1734; first compound 0.8 µM): 0.613 | relative viability (NCI-H1734; first compound 2.53 µM): 0.636 | relative viability (NCI-H1734; first compound 8 µM): 0.637 | relative viability (EKVX; first compound 0.253 µM): 0.783 | relative viability (EKVX; first compound 0.8 µM): 0.823 | relative viability (EKVX; first compound 2.53 µM): 0.854 | relative viability (EKVX; first compound 8 µM): 0.795 | relative viability (NCI-H3122; first compound 0.08 µM): 0.529 | relative viability (NCI-H3122; first compound 0.253 µM): 0.684 | relative viability (NCI-H3122; first compound 0.8 µM): 0.66 | relative viability (NCI-H3122; first compound 2.53 µM): 0.637 | relative viability (NCI-H3122; first compound 8 µM): 0.576 | relative viability (NCI-H1395; first compound 0.08 µM): 0.445 | relative viability (NCI-H1395; first compound 0.253 µM): 0.478 | relative viability (NCI-H1395; first compound 0.8 µM): 0.475 | relative viability (NCI-H1395; first compound 2.53 µM): 0.456 | relative viability (NCI-H1395; first compound 8 µM): 0.419 | relative viability (SK-MES-1; first compound 0.08 µM): 0.715 | relative viability (SK-MES-1; first compound 0.253 µM): 0.686 | relative viability (SK-MES-1; first compound 0.8 µM): 0.749 | relative viability (SK-MES-1; first compound 2.53 µM): 0.697 | relative viability (SK-MES-1; first compound 8 µM): 0.619 | relative viability (COR-L23; first compound 0.08 µM): 0.325 | relative viability (COR-L23; first compound 0.253 µM): 0.308 | relative viability (COR-L23; first compound 0.8 µM): 0.386 | relative viability (COR-L23; first compound 2.53 µM): 0.383 | relative viability (COR-L23; first compound 8 µM): 0.336 | relative viability (EPLC-272H; first compound 0.08 µM): 0.869 | relative viability (EPLC-272H; first compound 0.253 µM): 0.709 | relative viability (EPLC-272H; first compound 0.8 µM): 0.847 | relative viability (EPLC-272H; first compound 2.53 µM): 0.554 | relative viability (EPLC-272H; first compound 8 µM): 0.646 | relative viability (NCI-H661; first compound 0.08 µM): 0.735 | relative viability (NCI-H661; first compound 0.253 µM): 0.699 | relative viability (NCI-H661; first compound 0.8 µM): 0.704 | relative viability (NCI-H661; first compound 2.53 µM): 0.675 | relative viability (NCI-H661; first compound 8 µM): 0.587 | relative viability (NCI-H1915; first compound 0.08 µM): 0.259 | relative viability (NCI-H1915; first compound 0.253 µM): 0.241 | relative viability (NCI-H1915; first compound 2.53 µM): 0.246 | relative viability (NCI-H1915; first compound 8 µM): 0.243 | relative viability (NCI-H650; first compound 0.08 µM): 0.409 | relative viability (NCI-H650; first compound 0.253 µM): 0.333 | relative viability (NCI-H650; first compound 0.8 µM): 0.475 | relative viability (NCI-H650; first compound 2.53 µM): 0.404 | relative viability (NCI-H650; first compound 8 µM): 0.408 | relative viability (HCC-366; first compound 0.08 µM): 0.355 | relative viability (HCC-366; first compound 0.253 µM): 0.332 | relative viability (HCC-366; first compound 0.8 µM): 0.373 | relative viability (HCC-366; first compound 2.53 µM): 0.323 | relative viability (HCC-366; first compound 8 µM): 0.334
